This note sets out measurements from patent US9334242B2, “Compounds for treatment of cancer” (GTX, INC., priority 2010, dated 2016).

For data set [1], the system named is B16-F1 melanoma tumors. Description: In vivo anti-tumor activity, B16-F1 melanoma in C57/BL mice. The arrangement: species or system mouse. To be noted: 60 mg/kg i.p. daily, 14 days, C57/BL mice (positive control).
The test system of data set [2] is PC-3_TxR. Description: Cytotoxicity SRB assay, paclitaxel-resistant prostate line. To be noted: for IC50: Homo sapiens, PC3-TxR, read-out: IC50 ± SEM (nM) PC-3_TxR; for Resistance Factor: PC-3_TxR versus PC-3. In general terms: The SRB assay estimates cell density from bound dye.
Data set [3] can be described thus: Pharmacokinetic study in Sprague-Dawley rats. To be noted: rat.
Data set [4] is described as follows: in vivo. Particulars: female, Sprague-Dawley, rat, plasma, 10 mg/kg.
Data set [5] has as its system Porcine brain tubulin. In words: In vitro microtubule polymerization assay. The format is biochemical.
Data set [6] can be described thus: Pharmacokinetic study in ICR mice.
For data set [7], the system named is PC-3. In words: Cytotoxicity / cell growth inhibition, SRB assay. Particulars: Homo sapiens, PC-3, 96 h, read-out: IC50 ± SEM (nM) PC-3, SRB assay, 96 h of treatment.
A short description of data set [8]: Aqueous solubility, Multiscreen Solubility Filter Plate, PBS pH 7.4, LC-MS/MS. It is filed as physicochemical. Particulars: HCl salt of 2r.
The subject of data set [9] is melanoma (B16-F1, A375, WM-164) and prostate cancer (LNCaP, PC-3, DU 145, PPC-1) cell lines. In words: Cytotoxicity SRB assay, ranges or averages quoted over the melanoma and prostate cancer cell lines. It is filed as cell-based. To be noted: range given; read-out: IC50 (range over the tested cancer cell lines).
Data set [10] deals with WM-164. Description: Cytotoxicity / cell growth inhibition, SRB assay. Particulars: Homo sapiens, WM164, Table 6A. The format is cell-based.
The subject of data set [11] is PPC-1. In words: Cytotoxicity / cell growth inhibition, SRB assay. Particulars: Homo sapiens.
Data set [12] relates to B16-F1. In words: Cytotoxicity / cell growth inhibition, sulforhodamine B (SRB) assay. The format is cell-based. To be noted: Mus musculus, B16-F1, 96 h, 96 h of treatment, read-out: IC50 ± SEM (nM) B16-F1.
In data set [13] the test system is A375. Description: Cytotoxicity / cell growth inhibition, SRB assay. The format is cell-based. Particulars: Homo sapiens, A-375, 96 h, 96 h of treatment, read-out: IC50 ± SEM (nM) A375.
Data set [14] deals with DU 145. In words: Cytotoxicity / cell growth inhibition, SRB assay. To be noted: Homo sapiens, DU-145, 96 h, read-out: IC50 ± SEM (nM) DU 145, SRB assay, 96 h of treatment.
Data set [15] deals with LNCaP. Description: Cytotoxicity / cell growth inhibition, SRB assay. Particulars: Homo sapiens, 96 h, read-out: IC50 ± SEM (nM) LNCaP, SRB assay, 96 h of treatment.
The subject of data set [16] is WM-164 melanoma cells. In words: Microtubule imaging (immunofluorescence, Cellomics Cytoskeleton rearrangement kit). The format is cell-based, human. To be noted: WM-164 cells, 18 h. From the text:
Primary antibody for tubulin and fluorescence-labeled secondary antibody were subsequently added to the cells. Cell nuclei were stained by DAPI. Whole Cell Stain Green was also applied to all cells. All images were acquired with an Olympus IX71 inverted fluorescence microscope (Olympus Corp., Tokyo, Japan) with overlays from separate images of tubulin (red), nuclei (blue), and whole cells (green).

The subject of data set [17] is MES-SA. In words: Growth inhibition SRB assay, parental line. It is filed as cell-based. To be noted: Homo sapiens, Table 6, read-out: IC50 ± SEM (nM) MES-SA.
Data set [18] deals with MES-SA/DX5. Description: Growth inhibition SRB assay, P-gp over-expressing line. To be noted: Homo sapiens, Table 6, read-out: IC50 ± SEM (nM) MES-SA/Dx5. It is filed as cell-based.
Data set [19] relates to T1, tubulin colchicine binding site.
T1 construct: […]; other: SPA
In words: [3H]-colchicine competition-binding scintillation proximity assay. To be noted: SPA. Background: SPA uses beads or plates that emit light when radiolabelled molecules are held near them.

The subject of data set [20] is OVCAR-8. In words: Cytotoxicity SRB assay, MDR model parent line. The format is cell-based. To be noted: Homo sapiens.
Data set [21] has as its system A375 human melanoma xenograft. Description: In vivo anti-tumor activity, A375 human melanoma xenograft on SHO mice. Particulars: 25 mg/kg, 31 days. Background: A xenograft is tissue or cells of one species grown in another, often human tumour cells in immunodeficient mice.

Read-outs that look alike come from different tables or passages of the source.

Turning to `CN(C)/N=N/c1[nH]cnc1C(N)=O` [DTIC, 5-(3,3,-dimethyl-1-triazenyl)-imidazole-4-carboxamide], the tumor volume reduction in [1] turned out to be 51%.

On to `COc1cc(C(=O)c2csc(Nc3ccc4[nH]ccc4c3)n2)cc(OC)c1OC` [compound 55, (2-(1H-indol-5-ylamino)thiazol-4-yl)(3,4,5-trimethoxyphenyl)methanone], for which, in data set [2], the IC50 came out at 29 ± 1 nM and the “Resistance Factor” value came to 1.2. In [3] (i.v. 5 mg/kg), the RatPK_IV5mgk_V is recorded as 1.0 Lkg. For the same molecule, in data set [3] (p.o. 10 mg/kg), the RatPK_PO10mgk_AUC came to 335 µg·min/mL and the RatPK_PO10mgk_Cmax stood at 1052 ng/mL. The bioavailability in [4] (oral) stood at 33%. This molecule also had a bioavailability in data set [4] (po) of 33%. In addition, in data set [5], the “inhibition of tubulin polymerization at 1 μM” value came out at 11%. In data set [6] (mouse, i.v. 10 mg/kg), this molecule displayed a MousePK_IV10mgk_Cl of 40 mLmin/kg and a MousePK_IV10mgk_V of 1.3 Lkg. In data set [6] (mouse, oral), this molecule displayed a MousePK_Bioavailability of 34 %F. Also, in data set [6] (p.o. 20 mg/kg versus i.v. 10 mg/kg), the “oral bioavailability, mice” value is listed as 34%.

As to `COc1cc(C(=O)c2csc(-c3ccc(CN)cc3)n2)cc(OC)c1OC.Cl` [2r, (2-(4-(Aminomethyl)phenyl)thiazol-4-yl)(3,4,5-trimethoxyphenyl)methanone hydrochloride], the IC50 in data set [7] is 80 nM; in [9], 13 to 80 nM. Further, in [8], the “increase of solubility (fold) over compound 1h” value is “over 35 fold”.

Turning to `O=C(c1ccc(F)cc1)c1csc(-c2ccccc2)n1` [compound 12], the IC50 in [10] was greater than 10000 nM.

In the case of `O=C(c1ccc2[nH]ccc2c1)c1csc(-c2cc3ccccc3[nH]2)n1` [compound 21, (2-(1H-indol-2-yl)thiazol-4-yl)(1H-indol-5-yl)methanone], the IC50 in data set [7] was 87 nM; in [11] (PPC-1, 96 h, read-out: IC50 ± SEM (nM) PPC-1, SRB assay, 96 h of treatment), 76 nM; in [12] it was 110 nM; in [13], 100 nM; in [14], 116 nM; in [15], 103 nM.

For the molecule `CC(=O)O[C@H]1C(=O)[C@@]2(C)[C@H]([C@H](OC(=O)c3ccccc3)[C@]3(O)C[C@H](OC(=O)[C@H](O)[C@@H](NC(=O)c4ccccc4)c4ccccc4)C(C)=C1C3(C)C)[C@]1(OC(C)=O)CO[C@@H]1C[C@@H]2O` [paclitaxel], the IC50 is 97 ± 1 nM in data set [2]; 2.3 nM in [11] (PPC-1, 96 h, read-out: IC50 ± SEM (nM) PPC-1); 2.3 ± 0.8 nM in data set [11] (PPC-1, read-out: IC50 ± SEM (nM) PPC-1); 2.3 ± 0.8 nM in data set [11] (PPC-1, read-out: IC50 ± SEM (nm) PPC-1); 2.7 nM in data set [17]; 6.6 nM in data set [18]. For the same molecule, the IC50 in [20] (OVCAR-8, read-out: IC50 (nM) OVCAR-8) worked out at 4.7 ± 0.1 nM; in [20] (OVCAR-8, read-out: IC50 ± SEM (nm) OVCAR-8), 4.7 ± 0.1 nM. In data set [2], the “Resistance Factor” value was 20. Also, in data set [16], the “effect on microtubule arrangement” value is listed as “condensation of microtubules”. Moreover, the “competition for the tubulin colchicine binding site (in words)” value in data set [19] is “flat line”.

Turning to `O=C(c1ccc(F)cc1)c1c[nH]c(-c2ccc(Cl)cc2)n1` [12fb, (2-(4-chlorophenyl)-1H-imidazol-4-yl)(4-fluorophenyl)methanone], the “tolerability (body weight, physical activity)” value in [21] is recorded as “well tolerated”.

For orientation: bioavailability means dose-corrected exposure relative to a reference, in per cent. The low end stands for little systemic uptake, the high end for much systemic uptake.
